Data set [1] deals with Mycobacterium tuberculosis. Put plainly: Antitubercular activity against Mycobacterium tuberculosis H37Rv. The class given is functional.
Data set [2] is described as follows: Cytotoxicity against African green monkey Vero cells assessed as reduction in cell viability after 72 hrs by MTT assay. The class given is cell-based. The conditions noted are these: chlorocebus sabaeus, Vero cells.
A short description of data set [3]: Selectivity index, ratio of CC50 for African green monkey Vero cells to MIC for Mycobacterium tuberculosis H37Rv. The class given is toxicity. The following applies: read-out: Selectivity Index.
The test system of data set [4] is Staphylococcus epidermidis. As to the kind of experiment: Antibacterial activity against methicillin-sensitive Staphylococcus epidermidis. The format is functional.
For data set [5], the system named is Staphylococcus epidermidis. Put plainly: Antibacterial activity against methicillin-resistant Staphylococcus epidermidis. The format is functional.
For data set [6], the system named is Staphylococcus aureus. As to the kind of experiment: Antibacterial activity against methicillin-sensitive Staphylococcus aureus. The class given is functional.
Data set [7] deals with Staphylococcus aureus. Put plainly: Antibacterial activity against methicillin-resistant Staphylococcus aureus. The class given is functional.
The subject of data set [8] is Enterococcus faecalis. As to the kind of experiment: Antibacterial activity against Enterococcus faecalis. The format is functional.
In data set [9] the test system is Enterococcus faecium. Put plainly: Antibacterial activity against Enterococcus faecium. The format is functional.
The test system of data set [10] is Escherichia coli. Put plainly: Antibacterial activity against Escherichia coli. The format is functional.
The test system of data set [11] is Klebsiella pneumoniae. Put plainly: Antibacterial activity against Klebsiella pneumoniae. The class given is functional.
The test system of data set [12] is Pseudomonas aeruginosa. Put plainly: Antibacterial activity against Pseudomonas aeruginosa ATCC 27853. The format is functional.
The subject of data set [13] is Acinetobacter calcoaceticus. As to the kind of experiment: Antibacterial activity against Acinetobacter calcoaceticus. The format is functional.
The test system of data set [14] is Enterobacter cloacae. Put plainly: Antibacterial activity against Enterobacter cloacae. The class given is functional.
The subject of data set [15] is Klebsiella aerogenes. Put plainly: Antibacterial activity against Enterobacter aerogenes. The format is functional.
The test system of data set [16] is Proteus mirabilis. As to the kind of experiment: Antibacterial activity against Proteus mirabilis. The format is functional.
In data set [17] the test system is Citrobacter freundii. As to the kind of experiment: Antibacterial activity against Citrobacter freundii. The format is functional.

≈ marks a conversion by molar mass, not a printed value.

The compound `CCO/N=C1\C(=O)N(CCCCCOc2ccc3oc(-c4ccc(OC)cc4)c(C(=O)OCC)c3c2)c2ccc(OC)cc21` registered a minimum inhibitory concentration (MIC) in data set [1] of 0.156 µg/mL (≈ 0.26 µM). Also, in data set [2], the CC50 at 72 h was 16 µg/mL (≈ 26.6 µM). The selectivity ratio in data set [3] amounted to 102. Besides, the MIC90 turned out to be 1 µg/mL (≈ 1.66 µM) in data set [4]; 4 µg/mL (≈ 6.66 µM) in [5]; 1 µg/mL (≈ 1.66 µM) in [6]; 1 µg/mL (≈ 1.66 µM) in [7]; 1 µg/mL (≈ 1.66 µM) in data set [8]; 16 µg/mL (≈ 26.6 µM) in [9]. Moreover, the MIC90 in data set [10] was 0.125 µg/mL (≈ 0.208 µM); in data set [11], 2 µg/mL (≈ 3.33 µM); in data set [12], 2 µg/mL (≈ 3.33 µM); in data set [13] it was 2 µg/mL (≈ 3.33 µM); in [14] it was 0.06 µg/mL (≈ 0.0999 µM); in [15], 0.125 µg/mL (≈ 0.208 µM). The MIC90 in data set [16] turned out to be 0.06 µg/mL (≈ 0.0999 µM); in data set [17] it was 0.125 µg/mL (≈ 0.208 µM).

In the case of `CCOC(=O)c1c(-c2ccccc2)oc2ccc(OCCCN3C(=O)/C(=N\OC)c4cc(OC)ccc43)cc12`, in [1], the MIC is less than 0.016 µg/mL. The cytotoxic concentration (CC50) at 72 h in [2] stood at 64 µg/mL (≈ 121 µM). In addition, in data set [3], the selectivity ratio is greater than 4000. The MIC90 in [4] was 0.5 µg/mL (≈ 0.946 µM); in [5] it was 0.5 µg/mL (≈ 0.946 µM); in data set [6], 1 µg/mL (≈ 1.89 µM); in [7], 4 µg/mL (≈ 7.57 µM); in [8], 1 µg/mL (≈ 1.89 µM); in data set [9] it was 16 µg/mL (≈ 30.3 µM). The MIC90 in [10] is 0.125 µg/mL (≈ 0.236 µM); in [11] it was 0.5 µg/mL (≈ 0.946 µM); in data set [12] it was 1 µg/mL (≈ 1.89 µM); in data set [13], 2 µg/mL (≈ 3.78 µM); in data set [14], 0.5 µg/mL (≈ 0.946 µM); in [15] it was 2 µg/mL (≈ 3.78 µM). Also, the MIC90 in [16] came to 2 µg/mL (≈ 3.78 µM); in data set [17], 0.5 µg/mL (≈ 0.946 µM).

Take `CCOC(=O)c1c(-c2ccc(OC)cc2)oc2ccc(OCCCCCCN3C(=O)/C(=N\OC)c4cc(F)ccc43)cc12`: the minimum inhibitory concentration (MIC) in data set [1] was less than 0.016 µg/mL. Further, in [2], the cytotoxic concentration (CC50) at 72 h stood at 16 µg/mL (≈ 27.2 µM). Also, the selectivity ratio in [3] is greater than 1000. For the same compound, the MIC90 in [4] was found to be 0.5 µg/mL (≈ 0.849 µM); in [5] it was 16 µg/mL (≈ 27.2 µM); in data set [6] it was 4 µg/mL (≈ 6.8 µM); in data set [7], 4 µg/mL (≈ 6.8 µM); in data set [8], 2 µg/mL (≈ 3.4 µM); in data set [9], 16 µg/mL (≈ 27.2 µM). Also, the MIC90 in data set [10] is 0.25 µg/mL (≈ 0.425 µM); in data set [11] it was 2 µg/mL (≈ 3.4 µM); in [12] it was 8 µg/mL (≈ 13.6 µM); in [13] it was 4 µg/mL (≈ 6.8 µM); in data set [14], 0.5 µg/mL (≈ 0.849 µM); in [15], 0.5 µg/mL (≈ 0.849 µM). Besides, the MIC90 is 0.125 µg/mL (≈ 0.212 µM) in [16] and 0.5 µg/mL (≈ 0.849 µM) in data set [17].

In data set [1], `CCOC(=O)c1c(-c2ccc(OC)cc2)oc2ccc(OCCCCCN3C(=O)/C(=N\O)c4ccccc43)cc12` displayed an MIC of 0.062 µg/mL (≈ 0.114 µM). The half-maximal cytotoxic concentration (CC50) at 72 h in data set [2] came to 64 µg/mL (≈ 118 µM). Also, the selectivity ratio in [3] came out at 1030. In addition, the MIC90 in data set [4] came out at 0.25 µg/mL (≈ 0.461 µM); in data set [5], 4 µg/mL (≈ 7.37 µM); in data set [6], 2 µg/mL (≈ 3.69 µM); in data set [7] it was 2 µg/mL (≈ 3.69 µM); in data set [8], 2 µg/mL (≈ 3.69 µM); in [9] it was 8 µg/mL (≈ 14.7 µM). Moreover, the MIC90 is 0.25 µg/mL (≈ 0.461 µM) in data set [10]; 1 µg/mL (≈ 1.84 µM) in [11]; 4 µg/mL (≈ 7.37 µM) in [12]; 2 µg/mL (≈ 3.69 µM) in [13]; 1 µg/mL (≈ 1.84 µM) in data set [14]; 0.5 µg/mL (≈ 0.922 µM) in data set [15]. Besides, the figures for the MIC90 in data set [16] and in data set [17] were 0.25 µg/mL (≈ 0.461 µM) and 0.5 µg/mL (≈ 0.922 µM), respectively.

Compound `CCOC(=O)c1c(-c2ccc(OC)cc2)oc2ccc(OCCCCCCN3C(=O)C(=O)c4cc(F)ccc43)cc12` showed an MIC in [1] of less than 0.016 µg/mL. For the same compound, the CC50 at 72 h in data set [2] was 1020 µg/mL (≈ 1830 µM). Also, the selectivity ratio in data set [3] is greater than 64000. The MIC90 in data set [4] is 1 µg/mL (≈ 1.79 µM); in data set [5], 8 µg/mL (≈ 14.3 µM); in data set [6], 2 µg/mL (≈ 3.57 µM); in data set [7] it was 2 µg/mL (≈ 3.57 µM); in data set [8], 2 µg/mL (≈ 3.57 µM); in data set [9], 16 µg/mL (≈ 28.6 µM). For the same compound, the MIC90 in data set [10] is 0.125 µg/mL (≈ 0.223 µM); in [11], 1 µg/mL (≈ 1.79 µM); in [12] it was 4 µg/mL (≈ 7.15 µM); in data set [13], 4 µg/mL (≈ 7.15 µM); in [14] it was 0.5 µg/mL (≈ 0.894 µM); in [15], 0.25 µg/mL (≈ 0.447 µM). The MIC90 came out at 0.125 µg/mL (≈ 0.223 µM) in [16] and 1 µg/mL (≈ 1.79 µM) in data set [17].

Consider `CCO/N=C1\C(=O)N(CCCOc2ccc3oc(-c4ccc(OC)cc4)c(C(=O)OCC)c3c2)c2ccccc21`, for which the minimal inhibitory concentration (MIC) in data set [1] was less than 0.016 µg/mL. In addition, the CC50 at 72 h in data set [2] stood at 16 µg/mL (≈ 29.5 µM). The selectivity ratio in data set [3] is greater than 8000. Also, the MIC90 worked out at 1 µg/mL (≈ 1.84 µM) in [4]; 8 µg/mL (≈ 14.7 µM) in data set [5]; 8 µg/mL (≈ 14.7 µM) in data set [6]; 4 µg/mL (≈ 7.37 µM) in [7]; 4 µg/mL (≈ 7.37 µM) in data set [8]; 16 µg/mL (≈ 29.5 µM) in data set [9]. Moreover, the MIC90 is 0.5 µg/mL (≈ 0.922 µM) in data set [10]; 1 µg/mL (≈ 1.84 µM) in data set [11]; 4 µg/mL (≈ 7.37 µM) in data set [12]; 2 µg/mL (≈ 3.69 µM) in data set [13]; 4 µg/mL (≈ 7.37 µM) in [14]; 1 µg/mL (≈ 1.84 µM) in data set [15]. Also, the MIC90 in [16] and in data set [17] was 2 µg/mL (≈ 3.69 µM) throughout.

The values above are taken from ChEMBL document CHEMBL4400520, “Benzofuran-isatin-imine hybrids tethered via different length alkyl linkers: Design, synthesis and in vitro evaluation of anti-tubercular and anti-bacterial activities as well as cytotoxicity” (Eur J Med Chem, 2019).
